Experimental data published in publication PMC7324608 (Scientific Reports, 2020).
Positions count from the first letter of the chain named.

Assays:
Experiment in all cases: thermal shift assay
Assay type in all cases: binding
Parameters in all cases: (HpHtrA, G18-K475, UniProt G2J5T2); GST (N, cleaved yes); made in house; host or cells: E. coli BL21
HpHtrA wt = molecular target: T1, HpHtrA wt (Helicobacter pylori, UniProt G2J5T2)
T1 sequence (G2J5T2 18-475): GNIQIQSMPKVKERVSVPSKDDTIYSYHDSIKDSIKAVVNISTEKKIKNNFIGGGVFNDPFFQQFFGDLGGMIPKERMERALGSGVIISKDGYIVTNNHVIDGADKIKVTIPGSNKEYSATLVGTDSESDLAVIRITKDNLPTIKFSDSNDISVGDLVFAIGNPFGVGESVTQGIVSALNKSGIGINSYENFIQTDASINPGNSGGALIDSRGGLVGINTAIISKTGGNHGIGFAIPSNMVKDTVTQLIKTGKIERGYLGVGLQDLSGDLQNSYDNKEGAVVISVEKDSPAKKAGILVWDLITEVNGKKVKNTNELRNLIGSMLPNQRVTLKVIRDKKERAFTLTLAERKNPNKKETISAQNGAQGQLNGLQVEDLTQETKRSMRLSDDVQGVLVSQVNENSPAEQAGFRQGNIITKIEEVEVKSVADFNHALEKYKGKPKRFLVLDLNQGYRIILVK
Experimental: (§1) Recombinant HpHtrA proteins (wt, S164A, D165A, S166A, D168A) in 50 mM HEPES buffer (pH 7.4) were mixed with SYPRO Orange (Sigma-Aldrich, Vienna, Austria) to final concentrations of 4 µM HpHtrA and 7 × SYPRO Orange in a 96-well PCR plate. […] Fluorescence data was collected using an Applied Bioscience StepOne Plus PCR cycler (Thermo Fisher Scientific, Schwerte, Germany) during a temperature ramp from 25–95 °C (0.5 °C per min) with a 4 min hold at 25 °C and 95 °C. SYPRO Orange binds to exposed hydrophobic regions within the denatured HpHtrA proteins, which increases the fluorescence of the dye[57],[58]. The fluorescence emission signal can then be used to determine the melting temperature of the protein, which is located at the infliction point of the fluorescence signal curve. The experiment was performed in triplicates.

HpHtrA D165A = molecular target: T2, HpHtrA D165A (Helicobacter pylori, UniProt G2J5T2, D165A)
T2 sequence (G2J5T2 18-475 D165A): T1 sequence (G2J5T2 18-475) with D148A
Experimental: as §1

HpHtrA S166A = molecular target: T3, HpHtrA S166A (Helicobacter pylori, UniProt G2J5T2, S166A)
T3 sequence (G2J5T2 18-475 S166A): T1 sequence (G2J5T2 18-475) with S149A
Experimental: as §1

HpHtrA D168A = molecular target: T4, HpHtrA D168A (Helicobacter pylori, UniProt G2J5T2, D168A)
T4 sequence (G2J5T2 18-475 D168A): T1 sequence (G2J5T2 18-475) with D151A
Experimental: as §1

[1] = low/increasing concentrations of ion

SMILES	concentration at which HpHtrA wt was stabilized (HpHtrA wt; 4 µM HpHtrA wt, SYPRO Orange, 25–95 °C)	thermal stabilization (ΔTm) (HpHtrA D165A; [1])	thermal stabilization (ΔTm) (HpHtrA S166A; [1])	thermal stabilization (ΔTm) (HpHtrA D168A; [1])	thermal destabilization (ΔTm) (HpHtrA wt; HpHtrA wt, higher concentrations of ion)	thermal stabilization (ΔTm) (HpHtrA wt; HpHtrA wt, low concentrations of ion)	thermal destabilization (ΔTm) (HpHtrA D165A; compared with wt and S164A)	thermal destabilization (ΔTm) (HpHtrA S166A; compared with wt and S164A)	thermal destabilization (ΔTm) (HpHtrA D168A; compared with wt and S164A)
[Zn+2] [Zn^++, ZnCl2]	approximately 10 µM	did not stabilize	did not stabilize	did not stabilize					
[Cu+2] [Cu^++, CuCl2]					destabilized	stabilized	more strongly destabilized	more strongly destabilized	more strongly destabilized
